# Laboratory results from patent publication US12037340B2, “Pentacyclic derivatives as Zika virus inhibitors” (Gilead Sciences, Inc., priority 2021, dated 2024).
# Tested on: ZIKV
# Experiment: microbe, parasite or virus in culture
# Format: cell-based, Zika virus
# Details: 48 hrs
row,Structure (SMILES),EC50
1,"COC(=O)N[C@H](C(=O)N1CC2(CC2)C[C@H]1c1nc(Cl)c(-c2ccc3c(c2)COc2cc4c(ccc5nc([C@@H]6CC7(CC7)CN6C(=O)[C@@H](NC(=O)OC)C(C)(C)C(F)(F)F)[nH]c54)cc2-3)[nH]1)C(C)(C)C(F)(F)F [Compound 4, methyl ((S)-1-((S)-6-(4-chloro-5-(2-((S)-5-((S)-4,4,4-trifluoro-2-((methoxycarbonyl)amino)-3,3-dimethylbutanoyl)-5-azaspiro[2.4]heptan-6-yl)-1,11-dihydroisochromeno[4′,3′:6,7]naphtho[1,2-d]imidazol-9-yl)-1H-imidazol-2-yl)-5-azaspiro[2.4]heptan-5-yl)-4,4,4-trilluoro-3,3-dimethyl-1-oxobutan-2-yl)carbamate]",0.0087 µM

# Same assay, conditions: Zika virus, Huh-7; 48 hrs
row,Structure (SMILES),EC50
1,"COC(=O)N[C@H](C(=O)N1[C@@H](C)CC[C@H]1c1nc(Cl)c(-c2ccc3c(c2)COc2cc4c(ccc5nc([C@@H]6CC[C@H](C)N6C(=O)[C@@H](NC(=O)OC)C6C[C@@H](C)O[C@H](C)C6)[nH]c54)cc2-3)[nH]1)C1CC(C)O[C@H](C)C1 (stereo in doubt) [Compound 9, methyl ((S)-2-((2S,5S)-2-(9-(4-chloro-2-((2S,5S)-1-((S)-2-((2R,6R)-2,6-dimethyltetrahydro-2H-pyran-4-yl)-2-((methoxycarbonyl)amino)acetyl)-5-methylpyrrolidin-2-yl)-1H-imidazol-5-yl)-1,11-dihydroisochromeno[4′,3′:6,7]naphtho[1,2-d]imidazol-2-yl)-5-methylpyrrolidin-1-yl)-1-((2R,6R)-2,6-dimethyltetrahydro-2H-pyran-4-yl)-2-oxoethyl)carbamate]",0.0481 µM
2,"COC(=O)N[C@H](C(=O)N1[C@@H](C)CC[C@H]1c1nc(Br)c(-c2ccc3c(c2)COc2cc4c(ccc5nc([C@@H]6CC[C@H](C)N6C(=O)[C@@H](NC(=O)OC)C6C[C@@H](C)O[C@H](C)C6)[nH]c54)cc2-3)[nH]1)C1CC(C)O[C@H](C)C1 (stereo in doubt) [Compound 10, methyl ((S)-2-((2S,5S)-2-(9-(4-bromo-2-((2S,5S)-1-((S)-2-((2R,6R)-2,6-dimethyltetrahydro-2H-pyran-4-yl)-2-((methoxycarbonyl)amino)acetyl)-5-methylpyrrolidin-2-yl)-1H-imidazol-5-yl)-1,11-dihydroisochromeno[4′,3′:6,7]naphtho[1,2-d]imidazol-2-yl)-5-methylpyrrolidin-1-yl)-1-((2R,6R)-2,6-dimethyltetrahydro-2H-pyran-4-yl)-2-oxoethyl)carbamate]",0.0188 µM
3,"COC(=O)N[C@H](C(=O)N1CC2(CC2)C[C@H]1c1nc(Cl)c(-c2ccc3c(c2)COc2cc4c(ccc5nc([C@@H]6CC7(CC7)CN6C(=O)[C@@H](NC(=O)OC)C(C)C)[nH]c54)cc2-3)[nH]1)C(C)C [Compound 2, methyl ((S)-1-((S)-6-(4-chloro-5-(2-((S)-5-((methoxycarbonyl)-L-valyl)-5-azaspiro[2.4]heptan-6-yl)-1,11-dihydroisochromeno[4′,3′:6,7]naphtho[1,2-d]imidazol-9-yl)-1H-imidazol-2-yl)-5-azaspiro[2.4]heptan-5-yl)-3-methyl-1-oxobutan-2-yl)carbamate]",0.0505 µM
4,"COC[C@H]1C[C@@H](c2nc(Cl)c(-c3ccc4c(c3)COc3cc5c(ccc6nc([C@@H]7CC[C@H](C)N7C(=O)[C@@H](NC(=O)OC)C(C)C)[nH]c65)cc3-4)[nH]2)N(C(=O)[C@@H](NC(=O)OC)[C@@H](C)OC)C1 [Compound 5, methyl ((S)-1-((2S,5S)-2-(9-(4-chloro-2-((2S,4S)-1-(N-(methoxycarbonyl)-O-methyl-L-threonyl)-4-(methoxymethyl)pyrrolidin-2-yl)-1H-imidazol-5-yl)-1,11-dihydroisochromeno[4′,3′:6,7]naphtho[1,2-d]imidazol-2-yl)-5-methylpyrrolidin-1-yl)-3-methyl-1-oxobutan-2-yl)carbamate]",0.124 µM
5,"COC[C@H]1C[C@@H](c2nc(Cl)c(-c3ccc4c(c3)COc3cc5c(ccc6nc([C@@H]7CC[C@H](C)N7C(=O)[C@@H](NC(=O)OC)C(C)C)[nH]c65)cc3-4)[nH]2)N(C(=O)[C@@H](NC(=O)OC)C2CCOCC2)C1 [Compound 6, methyl ((S)-1-((2S,5S)-2-(9-(4-chloro-2-((2S,4S)-1-((S)-2-((methoxycarbonyl)amino)-2-(tetrahydro-2H-pyran-4-yl)acetyl)-4-(methoxymethyl)pyrrolidin-2-yl)-1H-imidazol-5-yl)-1,11-dihydroisochromeno[4′,3′:6,7]naphtho[1,2-d]imidazol-2-yl)-5-methylpyrrolidin-1-yl)-3-methyl-1-oxobutan-2-yl)carbamate]",0.133 µM
6,"COC[C@H]1C[C@@H](c2nc(Cl)c(-c3ccc4c(c3)COc3cc5c(ccc6nc([C@@H]7CC[C@H](C)N7C(=O)[C@@H](NC(=O)OC)C(C)C)[nH]c65)cc3-4)[nH]2)N(C(=O)[C@@H](NC(=O)OC)C(C)C)C1 [Compound 7, methyl ((S)-1-((2S,5S)-2-(9-(4-chloro-2-((2S,4S)-1-((methoxycarbonyl)-L-valyl)-4-(methoxymethyl)pyrrolidin-2-yl)-1H-imidazol-5-yl)-1,11-dihydroisochromeno[4′,3′:6,7]naphtho[1,2-d]imidazol-2-yl)-5-methylpyrrolidin-1-yl)-3-methyl-1-oxobutan-2-yl)carbamate]",0.039 µM
7,"COC[C@H]1C[C@@H](c2nc(Br)c(-c3ccc4c(c3)COc3cc5c(ccc6nc([C@@H]7CC[C@H](C)N7C(=O)[C@@H](NC(=O)OC)C(C)C)[nH]c65)cc3-4)[nH]2)N(C(=O)[C@@H](NC(=O)OC)C(C)C)C1 [Compound 8, methyl ((S)-1-((2S,5S)-2-(9-(4-bromo-2-((2S,4S)-1-((methoxycarbonyl)-L-valyl)-4-(methoxymethyl)pyrrolidin-2-yl)-1H-imidazol-5-yl)-1,11-dihydroisochromeno[4′,3′:6,7]naphtho[1,2-d]imidazol-2-yl)-5-methylpyrrolidin-1-yl)-3-methyl-1-oxobutan-2-yl)carbamate]",0.0241 µM
8,"COC(=O)N[C@H](C(=O)N1[C@@H](C)CC[C@H]1c1nc(C2CC2)c(-c2ccc3c(c2)COc2cc4c(ccc5nc([C@@H]6CC[C@H](C)N6C(=O)[C@@H](NC(=O)OC)C6C[C@@H](C)O[C@H](C)C6)[nH]c54)cc2-3)[nH]1)C1C[C@@H](C)O[C@H](C)C1 (stereo partly drawn) [Compound 11, methyl ((S)-2-((2S,5S)-2-(9-(4-cyclopropyl-2-((2S,5S)-1-((S)-2-((2R,6R)-2,6-dimethyltetrahydro-2H-pyran-4-yl)-2-((methoxycarbonyl)amino)acetyl)-5-methylpyrrolidin-2-yl)-1H-imidazol-5-yl)-1,11-dihydroisochromeno[4′,3′:6,7]naphtho[1,2-d]imidazol-2-yl)-5-methylpyrrolidin-1-yl)-1-((2R,6R)-2,6-dimethyltetrahydro-2H-pyran-4-yl)-2-oxoethyl)carbamate]",0.0219 µM
9,"CC[C@H]1CC[C@@H](c2nc3ccc4cc5c(cc4c3[nH]2)OCc2cc(-c3[nH]c([C@@H]4CC[C@H](C)N4C(=O)[C@@H](NC(=O)OC)C(C)C)nc3Cl)ccc2-5)N1C(=O)[C@@H](NC(=O)OC)C1CCOCC1 [Compound 12, methyl ((S)-2-((2S,5S)-2-(9-(4-chloro-2-((2S,5S)-1-((methoxycarbonyl)-L-valyl)-5-methylpyrrolidin-2-yl)-1H-imidazol-5-yl)-1,11-dihydroisochromeno[4′,3′:6,7]naphtho[1,2-d]imidazol-2-yl)-5-ethylpyrrolidin-1-yl)-2-oxo-1-(tetrahydro-2H-pyran-4-yl)ethyl)carbamate]",0.0121 µM
10,"COC[C@H]1C[C@@H](c2nc(C#N)c(-c3ccc4c(c3)COc3cc5c(ccc6nc([C@@H]7CC[C@H](C)N7C(=O)[C@@H](NC(=O)OC)C(C)C)[nH]c65)cc3-4)[nH]2)N(C(=O)[C@@H](NC(=O)OC)C(C)C)C1 [Compound 13, methyl ((S)-1-((2S,5S)-2-(9-(4-cyano-2-((2S,4S)-1-((methoxycarbonyl)-L-valyl)-4-(methoxymethyl)pyrrolidin-2-yl)-1H-imidazol-5-yl)-1,11-dihydroisochromeno[4′,3′:6,7]naphtho[1,2-d]imidazol-2-yl)-5-methylpyrrolidin-1-yl)-3-methyl-1-oxobutan-2-yl)carbamate]",0.0516 µM
11,"CC[C@H](C)[C@H](NC(=O)OC)C(=O)N1C[C@@H](COC)C[C@H]1c1nc(Cl)c(-c2ccc3c(c2)COc2cc4c(ccc5nc([C@@H]6CC[C@H](C)N6C(=O)[C@@H](NC(=O)OC)C(C)C)[nH]c54)cc2-3)[nH]1 [Compound 14, methyl ((S)-1-((2S,5S)-2-(9-(4-chloro-2-((2S,4S)-1-((methoxycarbonyl)-L-isoleucyl)-4-(methoxymethyl)pyrrolidin-2-yl)-1H-imidazol-5-yl)-1,11-dihydroisochromeno[4′,3′:6,7]naphtho[1,2-d]imidazol-2-yl)-5-methylpyrrolidin-1-yl)-3-methyl-1-oxobutan-2-yl)carbamate]",0.0097 µM
12,"CC[C@H](C)[C@H](NC(=O)OC)C(=O)N1[C@@H](C)CC[C@H]1c1nc(Cl)c(-c2ccc3c(c2)COc2cc4c(ccc5nc([C@@H]6CC[C@H](C)N6C(=O)[C@@H](NC(=O)OC)C6CCOCC6)[nH]c54)cc2-3)[nH]1 [Compound 15, methyl ((S)-2-((2S,5S)-2-(9-(4-chloro-2-((2S,5S)-1-((methoxycarbonyl)-L-isoleucyl)-5-methylpyrrolidin-2-yl)-1H-imidazol-5-yl)-1,11-dihydroisochromeno[4′,3′:6,7]naphtho[1,2-d]imidazol-2-yl)-5-methylpyrrolidin-1-yl)-2-oxo-1-(tetrahydro-2H-pyran-4-yl)ethyl)carbamate]",0.0077 µM
13,"CC[C@H](C)[C@H](NC(=O)OC)C(=O)N1C[C@@H](COC)C[C@H]1c1nc(C#N)c(-c2ccc3c(c2)COc2cc4c(ccc5nc([C@@H]6CC[C@H](C)N6C(=O)[C@@H](NC(=O)OC)C(C)C)[nH]c54)cc2-3)[nH]1 [Compound 16, methyl ((S)-1-((2S,5S)-2-(9-(4-cyano-2-((2S,4S)-1-((methoxycarbonyl)-L-isoleucyl)-4-(methoxymethyl)pyrrolidin-2-yl)-1H-imidazol-5-yl)-1,11-dihydroisochromeno[4′,3′:6,7]naphtho[1,2-d]imidazol-2-yl)-5-methylpyrrolidin-1-yl)-3-methyl-1-oxobutan-2-yl)carbamate]",0.0434 µM
